Test results taken from patent US20090258069A1, “Delivery of LFA-1 antagonists to the gastrointestinal system” (priority 2008, published 2009).

Legend:
[1] = system: attachment of Jurkat cells to ICAM-1; assay: T-cell adhesion assay using Jurkat cells; format: cell-based, human
Experimental: A reported LFA-1 antagonist was used as the positive control.
Jurkat cells were labeled with an 8 μM solution of BCECF-AM (2′,7′-bis-(2-carboxyethyl)-5-(and -6)-carboxyfluorescein) in growth media at room temperature for 15 minutes. […] Non-adherent cells were removed by washing and centrifugation at 100 g for 1 minute. Adherent cells were determined as adherent fluorescent units on a fluorescent plate reader.

[2] = system: healthy adults; assay: Phase 1 clinical trial of Compound 12 Ophthalmic Solution, safety and tolerability; format: in vivo, human
Description: The objectives of the trial were to measure safety and tolerability, and pharmacokinetics in tear and plasma. The dosing schedule (OU; Oculus Uterque (each eye or both eyes)) was divided into 3 periods, each separated by a 72-hour wash out interval: once/day×1 day (drug one eye; placebo fellow eye), twice/day×10 days, and thrice/day×10 days, 14-day observation. Slit lamp examination of the eye, BCVA (Best Corrected Visual Acuity), STTs (Schirmer Tear Test), TBUT (Tear Break-Up Time), IOP (Intraocular pressure) were assessed at screening and the beginning and end of each period. For each cohort, masked safety data was reviewed by a Safety Committee prior to allowing dose escalation of the next cohort. A total of 2856 doses (102 drops/subject) were administered over 1148 total subject study days (41 study days/subject) in 56 eyes. All subjects in all cohorts completed the study, and no study drug doses were missed.

[3] = system: SEB stimulated IL-2 release in whole human blood; assay: cells; format: cell-based; conditions: read-out: IC50 inhibition of SEB stimulated IL-2 release in whole human blood
[4] = system: dogs (beagles); assay: Cardiovascular effects in conscious telemetry-instrumented dogs, IV bolus; format: in vivo, dog; conditions: IV bolus injection
[5] = system: rats; assay: CNS effects in rats, single bolus IV injection; format: in vivo, rat
Description: No effect on any other parameters was observed.

[6] = system: CD-1 (ICR) BR mice; assay: In vivo mouse bone marrow micronucleus assay; conditions: repeated IV administrations
[7] = Acute toxicity, single dose IV in rats; conditions: rat, in vivo
Experimental: 4. Acute Toxicity Studies: For single dose IV in rats, the no observable adverse effect level (NOAEL) was 10 mg/kg IV. For escalating single dose IV and 7-day repeated dose with TK (toxicokinetics) in dogs, the NOAEL was 10 mg/kg IV. For single dose ocular tolerance in rabbits, the NOAEL was 3.5 mg/eye/3× per day (10%).

[8] = Single dose ocular and IV ADME with [^14C]-Compound 12 in rats, quantitative whole body autoradiography; format: in vivo, rat; conditions: for Compound 12 Concentration, Aqueous humor / Compound 12 Concentration, Conjunctiva (bulbar) / Compound 12 Concentration, Conjunctiva (palpebral) / Compound 12 Concentration, Cornea / Compound 12 Concentration, Iris-ciliary body / Compound 12 Concentration, Lens / Compound 12 Concentration, Optic Nerve / Compound 12 Concentration, Retina and Choroid (with RPE) / Compound 12 Concentration, Sclera / Compound 12 Concentration, Vitreous Humor: ocular dosing in rats; for excretion in feces, of the administered radioactivity: 0 to 168 hours postdose
Experimental: Quantitative whole body […] assessments were performed.
Little or no drug is observed in systemic distribution.

[9] = Single dose ocular and IV ADME with [^14C]-Compound 12 in dogs; format: in vivo, dog
Description: Following an ocular dose, the highest average [^14C]-Compound 12 levels were detected in anterior ocular tissues (see FIG. 16). […] No differences in results from male and female dogs were observed.

[10] = Plasma PK in rats after a single IV bolus dose; format: in vivo, rat; conditions: for AUC: read-out: AUC0-n
[11] = Skin transport studies on microtomed human skin; format: in vitro ADME; conditions: 1% (w/w) prototypes; [^14C]-Compound 12
Description: Prototypes have been developed and tested on microtomed human skin from elective surgery at 1% (w/w). The forms include gels, ointment, or lotion. […] Skin transport studies performed with LC/MS/MS analysis indicate high Compound 12 levels in epidermis and dermis and low levels in the receiver.

[12] = Pilot rat dermal study; format: in vivo; conditions: 1% lotion, ointment, gel, DMSO; TID 7 days, 10 mg/cm^2 on about 6 cm^2
Experimental: The safety and tolerability of prototypical dermal formulations (1% lotion, ointment, and gel) were assessed on rats given TID for seven consecutive days—approximately 6 cm^2 with 10 mg/cm^2.

[13] = in vivo; conditions: rat, iv
[14] = in vivo; conditions: topical or ocular
[15] = system: dogs; assay: 13-week ocular toxicity study in dogs with 4-week recovery (with TK); conditions: (3%)
[16] = 0.5 hour postdose, ocular 1 mg/eye
[17] = 0.5 hour postdose, ocular 1 mg/eye, male Sprague Dawley, above upper limit of quantification
[18] = 2 hours postdose, ocular 1 mg/eye
[19] = 8 hours postdose, ocular 1 mg/eye
[20] = 24 hours postdose, ocular 1 mg/eye
[21] = 30.0 mg/kg single IV bolus, from rat safety pharmacology study
[22] = rat, 10.0 mg/kg single IV bolus

Q: With CS(=O)(=O)c1cccc(C[C@H](NC(=O)c2c(Cl)cc3c(c2Cl)CCN(C(=O)c2ccc4ccoc4c2)C3)C(=O)O)c1 [Compound 12] as the compound, how does the “Jurkat cell attachment to ICAM-1” value ([1]; 30 min preincubation, 1 h at 37° C.) read?
A: inhibition of Jurkat cell attachment with increasing dose

Q: And the “dose response curve and IC50, Jurkat cell attachment” value ([1]; vs positive control)?
A: comparable to that of the known direct competitive LFA-1 antagonist

Q: What about the “deaths, discontinuations, serious or severe AEs considered related to drug” value ([2]; 0.1%, 0.3%, 1% and 5% dose strengths, any dose regimen) of the same compound?
A: No deaths, discontinuations, serious or severe ocular or non-ocular AEs

Q: What about the “overall safety and tolerability, topical ocular instillation” value ([2]; dose strengths up to 5% TID) of the same compound?
A: safe and well-tolerated

Q: And the “localized ocular irritation or infection” value ([2]; human, in vivo)?
A: no evidence of localized ocular irritation or infection

Q: What about the “Blood pressure, heart rate, respiratory rate, temperature, body weight, and EKG results” value ([2]; throughout the trial) of the same compound?
A: within normal ranges

Q: What about the “Total lymphocyte count, CD3, CD4, and CD8 cell counts” value ([2]; throughout the trial) of the same compound?
A: within normal ranges with no evidence of lymphocyte or neutrophil suppression

Q: What about the IC50 [3] of the same compound?
A: 69 nM

Q: And the “effects on electrocardiography or hemodynamic parameters” value [4]?
A: No effects

Q: And the CNS observation ([5]; 10.0 mg/kg IV, 1 minute to 6 hours postdose in 2/6 animals at each time point)?
A: Transient miosis

Q: And the “effect on any other CNS parameters” value ([5]; single bolus IV)?
A: No effect

Q: And the “mouse bone marrow micronucleus assay” value [6]?
A: negative

Q: What about the NOAEL [7] of the same compound?
A: 10 mg/kg

Q: What about the “Compound 12 Concentration, Aqueous humor” value ([8]; 0.5 hour after administration) of the same compound?
A: 1770 ng Equivalents [^14C]-Compound 12/g tissue

Q: And the “Compound 12 Concentration, Conjunctiva (bulbar)” value ([8]; 0.5 hour after administration)?
A: 31500 ng Equivalents [^14C]-Compound 12/g tissue

Q: And the “Compound 12 Concentration, Conjunctiva (palpebral)” value ([8]; 0.5 hour after administration)?
A: 26300 ng Equivalents [^14C]-Compound 12/g tissue

Q: What about the “Compound 12 Concentration, Cornea” value ([8]; 0.5 hour after administration) of the same compound?
A: 17150 ng Equivalents [^14C]-Compound 12/g tissue

Q: And the “Compound 12 Concentration, Iris-ciliary body” value ([8]; 0.5 hour after administration)?
A: 17550 ng Equivalents [^14C]-Compound 12/g tissue

Q: What about the “Compound 12 Concentration, Lens” value ([8]; 0.5 hour after administration) of the same compound?
A: 38.8 ng Equivalents [^14C]-Compound 12/g tissue

Q: What about the “Compound 12 Concentration, Optic Nerve” value ([8]; 0.5 hour after administration) of the same compound?
A: 796 ng Equivalents [^14C]-Compound 12/g tissue

Q: And the “Compound 12 Concentration, Retina and Choroid (with RPE)” value ([8]; 0.5 hour after administration)?
A: 510 ng Equivalents [^14C]-Compound 12/g tissue

Q: And the “Compound 12 Concentration, Sclera” value ([8]; 0.5 hour after administration)?
A: 2750 ng Equivalents [^14C]-Compound 12/g tissue

Q: What about the “Compound 12 Concentration, Vitreous Humor” value ([8]; 0.5 hour after administration) of the same compound?
A: 1330 ng Equivalents [^14C]-Compound 12/g tissue

Q: And the “radioactivity concentration, eye” value [8, 16]?
A: 18100 ng equivalents [^14C]-Compound 12/g

Q: What about the “radioactivity concentration, kidney” value [8, 16] of the same compound?
A: 151 ng equivalents [^14C]-Compound 12/g

Q: And the “radioactivity concentration, liver” value [8, 16]?
A: 272 ng equivalents [^14C]-Compound 12/g

Q: What about the “radioactivity concentration, uveal tract” value [8, 16] of the same compound?
A: 9330 ng equivalents [^14C]-Compound 12/g

Q: What about the “radioactivity concentration, esophageal contents” value [8, 17] of the same compound?
A: 399000 ng equivalents [^14C]-Compound 12/g

Q: What about the “radioactivity concentration, nasal turbinates” value [8, 17] of the same compound?
A: 352000 ng equivalents [^14C]-Compound 12/g

Q: What about the “radioactivity concentration, small intestinal contents” value [8, 17] of the same compound?
A: 349000 ng equivalents [^14C]-Compound 12/g

Q: And the “decline of radioactivity concentration, esophageal contents” value [8, 18]?
A: ~100 fold

Q: What about the “decline of radioactivity concentration, esophagus” value [8, 18] of the same compound?
A: approximately 50 fold

Q: What about the “Compound 12 Concentration, Aqueous humor” value ([8]; 4.0 hours after administration) of the same compound?
A: 116 ng Equivalents [^14C]-Compound 12/g tissue

Q: And the “Compound 12 Concentration, Conjunctiva (bulbar)” value ([8]; 4.0 hours after administration)?
A: 4480 ng Equivalents [^14C]-Compound 12/g tissue

Q: And the “Compound 12 Concentration, Conjunctiva (palpebral)” value ([8]; 4.0 hours after administration)?
A: 21830 ng Equivalents [^14C]-Compound 12/g tissue

Q: What about the “Compound 12 Concentration, Cornea” value ([8]; 4.0 hours after administration) of the same compound?
A: 1346 ng Equivalents [^14C]-Compound 12/g tissue

Q: What about the “Compound 12 Concentration, Iris-ciliary body” value ([8]; 4.0 hours after administration) of the same compound?
A: 500 ng Equivalents [^14C]-Compound 12/g tissue

Q: What about the “Compound 12 Concentration, Lens” value ([8]; 4.0 hours after administration) of the same compound?
A: 9.69 ng Equivalents [^14C]-Compound 12/g tissue

Q: What about the “Compound 12 Concentration, Optic Nerve” value ([8]; 4.0 hours after administration) of the same compound?
A: 0 ng Equivalents [^14C]-Compound 12/g tissue

Q: And the “Compound 12 Concentration, Retina and Choroid (with RPE)” value ([8]; 4.0 hours after administration)?
A: 46.7 ng Equivalents [^14C]-Compound 12/g tissue

Q: What about the “Compound 12 Concentration, Sclera” value ([8]; 4.0 hours after administration) of the same compound?
A: 387 ng Equivalents [^14C]-Compound 12/g tissue

Q: What about the “Compound 12 Concentration, Vitreous Humor” value ([8]; 4.0 hours after administration) of the same compound?
A: 183 ng Equivalents [^14C]-Compound 12/g tissue

Q: What about the “radioactivity concentration, cecum contents” value [8, 19] of the same compound?
A: 57600 ng equivalents [^14C]-Compound 12/g

Q: And the “radioactivity concentration, large intestinal contents” value [8, 19]?
A: 133000 ng equivalents [^14C]-Compound 12/g

Q: What about the “radioactivity concentration, uveal tract” value ([8]; 12 hours postdose, ocular 1 mg/eye) of the same compound?
A: 610 ng equivalents [^14C]-Compound 12/g

Q: What about the “radioactivity concentration, cecum contents” value [8, 20] of the same compound?
A: 5870 ng equivalents [^14C]-Compound 12/g

Q: And the “radioactivity concentration, large intestinal contents” value [8, 20]?
A: 18000 ng equivalents [^14C]-Compound 12/g

Q: And the “excretion in feces, of the administered radioactivity” value ([8]; IV administration 10 mg/kg)?
A: ~95%

Q: And the “excretion in feces, of the administered radioactivity” value ([8]; ocular administration 1 mg/eye)?
A: approximately 60%

Q: What about the “Urinary excretion, of the administered radioactivity” value ([8]; ocular or IV) of the same compound?
A: up to 2%

Q: And the binding to melanin ([8]; pigmented vs albino rats)?
A: did not preferentially bind to melanin

Q: What about the levels in conjunctiva/cornea ([8]; rat, for 16 hrs) of the same compound?
A: > 100 nM

Q: What about the “metabolites in pooled plasma, urine and fecal homogenates” value ([8]; up to 168 hrs, topical ocular or IV dose) of the same compound?
A: no metabolites were isolated

Q: What about the levels in conjunctiva/cornea ([9]; dog, for 16 hrs) of the same compound?
A: greater than 1 micromolar

Q: And the “metabolites in pooled plasma, urine and fecal homogenate” value ([9]; up to 168 hrs post-dose, 3 mg/eye or 3 mg/dog)?
A: no metabolites detected

Q: And the Cmax [10, 21]?
A: 5120 ng/mL

Q: And the AUC [10, 21]?
A: 2350 ng·h/mL

Q: What about the Cmax [10, 22] of the same compound?
A: 1060 ng/mL

Q: What about the MRT [10, 22] of the same compound?
A: 0.92 h

Q: What about the clearance [10, 22] of the same compound?
A: 173 mL/min/kg

Q: And the half-life [10, 22]?
A: 3.76 h

Q: And the AUC [10, 22]?
A: 728 ng·h/mL

Q: And the Vd ([10]; rat, 10.0 mg/kg single IV bolus, read-out: Vss)?
A: 9.56 L/kg

Q: What about the “Compound 12 in dermis” value [11] of the same compound?
A: greater than 10 micromolar

Q: And the dose penetration [11]?
A: 2-4%

Q: What about the “serum level after dermal dosing” value [12] of the same compound?
A: detectable in serum

Q: What about the NOAEL at 13 week [13] of the same compound?
A: 30 mg/kg

Q: And the AUC ([14]; 0.105 mg)?
A: 5.19 ± 5.39 ng·h/mL

Q: What about the Cmax ([14]; 0.105 mg) of the same compound?
A: 11.7 ± 8.8 ng/mL

Q: And the AUC ([14]; 0.35 mg)?
A: 7.35 ± 1.52 ng·h/mL

Q: And the Cmax ([14]; 0.35 mg)?
A: 13.1 ± 2.12 ng/mL

Q: What about the NOAEL [15] of the same compound?
A: 1.05 mg/eye/3× per day
